In patent publication US20220000860A1, “COMPOUNDS, COMPOSITIONS, AND METHODS FOR TREATING HUMAN IMMUNODEFICIENCY VIRUS” (OYAGEN, INC., priority 2017, published 2022):
pEC50, pIC50: −log10 of the molar value.

What was measured:
[1] = target: T1, pNL4-3 Vif (Vif multimerization) (Human immunodeficiency virus type 1 group M subtype B, UniProt P12504); test: Vif FqRET Multimerization Assay; assay type: cell-based, HIV
T1 construct: expressed in transfected cells; host or cells: HEK293T
From the text: The quenched fluorescence resonance energy transfer (FqRET) cell-based assay utilized expression of pNL4-3 Vif (accession no. M19921) tagged separately with either a EGFP fluorophore (EGFP-V5-Vif) or a REACh2 quencher (Vif-HA-REACh2) in the pIRES-P vector. The Vif multimerization assay was established through robotic co-transfection of HEK293T (293T) cells with Turbofect (Thermo) and optimized for input plasmid ratio (1:4, fluorophore to quencher) to achieve maximum quench of fluorescent signal. EGFP fluorescence was quantified 24 hours after transfection with a BioTek Synergy4 plate reader (ex=485 nm, em=528 nm) followed by the addition of 0-30 μM compound. The plates were read a second time 24 hours after compound addition. The differential between the first and second read in each well was quantified relative to the DMSO control to determine the change in relative fluorescence units (ΔRFU)
The interaction of 2 molecules of Vif (i.e. dimerization) enables quenching of Enhanced Green Fluorescent Protein (EGFP) signal by Resonance Energy Accepting Chromophore 2 (REACh2), a dark mutant of yellow fluorescent protein that is capable of accepting the EGFP donor fluorescence and quenching its signal without an acceptor signal.

[2] = test system: IIIB (Subtype B); test: PBMC Acute Infection, IIIB; assay type: cell-based, HIV; details: Human immunodeficiency virus 1, isolate IIIB, subtype B, RT activity readout; for pEC50: read-out: EC50; for EC90: read-out: EC90
Description: (§1) PHA-stimulated cells from at least two normal donors were pooled (i.e. mixed together), diluted in fresh medium to a final concentration of 1×10^6 cells/mL, and plated in the interior wells of a 96-well round bottom microplate at 50 μL/well (5×10^4 cells/well). Pooling of mononuclear cells from more than one donor was used to minimize the variability observed between individual donors in quantitative and qualitative differences in HIV infection and overall response to the PHA and IL-2 of primary lymphocyte populations. Each plate contained virus control wells (cells plus virus) and experimental wells (drug plus cells plus virus) of either 00KE_KER2008 (Subtype A), IIIB (Subtype B), or 98US_MSC5016 (Subtype C). Test drug dilutions were prepared at a 2×concentration and 100 μL of each concentration was placed in appropriate wells. Fifty μL of a predetermined dilution of virus stock was placed in each test well (final MOI≅0.1). After this period, cell-free supernatant samples were collected for analysis of reverse transcriptase (RT) activity with an RT assay. […] In the Table below SI50=CC50/EC50 and SI90=CC90/EC90.

[3] = test system: 98US_MSC5016 (Subtype C); test: PBMC Acute Infection, 98US_MSC5016; assay type: cell-based, HIV; details: Human immunodeficiency virus 1, PBMC, isolate 98US_MSC5016, subtype C, RT activity readout; for pEC50: read-out: EC50; for EC90: read-out: EC90
Description: as §1

[4] = target: T2, HIV-1 Integrase (Human immunodeficiency virus type 1 group M subtype B, UniProt P12497); test: integrase assay (XpressBio HIV-1 Integrase Assay Kit); assay type: biochemical
T2 construct: the integrase assay was conducted using the XpressBio HIV-1 Integrase Assay Kit; purchased XpressBio
Description: (§2) For the assays listed in Table I, the integrase assay was conducted using the XpressBio HIV-1 Integrase Assay Kit according to the manufacture's protocol. The protease assay was conducted with the Anthranilyl (Abz)-HIV Protease Substrate (Bachem H-2992), a hexapeptide FRET substrate derived from the p24/p15 cleavage site of the viral gag-pol poly-protein, which allows the screening of potential HIV protease inhibitors. 1 mM Abz-Substrate was diluted with Assay Buffer to a working stock of 20 μM. A 50 μM stock HIV-1 protease (received from Sook-kyung Lee (UNC)) was diluted with Assay Buffer (50 mM HEPES, pH 6.8, 150 mM NaCl, and 1% DMSO) to a working stock of 100 nM. 2 μl 100 nM HIV-1 Protease along with 2 uL 20 μM Abz Substrate was added into each well and incubated at room temperature (avoiding light) for 1 hour before being read on an Envision plate reader (Perkin Elmer) excitation at 280 nm, emission at >435 nm. The reverse transcriptase assay utilized purified recombinant HIV (pNL4-3) heterodimeric (p66/p51) Reverse Transcriptase (RT) that was purchased from a commercially available source. The assay was performed in 96-well filter plate, where RT activity was determined by the incorporation of radiolabeled deoxyribonucleotides into the newly synthesized DNA strand. The RT reaction mixture contained in vitro transcribed viral RNA derived from the HIV-1NL4-3 5′-LTR region (position 454 to 652) and primer that is complementary to the primer binding site (PBS, nucleotide residues nucleotides 636 to 652), radiolabeled deoxyribonucleotide, dNTPs and reverse transcriptase. Briefly, the reaction was carried out in a volume of 50 μl containing 50 mM Tris HCl, pH 7.8, 50 mM KCl, 5 mM MgCl2, 1 mM DTT, 50 μM each of dATP, dCTP, dGTP, 50 nM dTTP, 1 μCi of [^3H] dTTP (70-90 Ci/mM) and 5 nM template/primer. The reaction was initiated by the addition of 10 nM RT. For compound screening, serially diluted test articles were added to the reaction followed by the addition of RT. The reaction mixture was incubated at 37° C. for 1 h, and then quenched by the addition of ice-cold trichloroacetic acid (TCA) to the final concentration of 10%. The plate was incubated at 4° C. for 1 h to precipitate the synthesized DNA, then rinsed 3-times with 10% TCA and 1 time with 70% ethanol. After addition of 25 μl scintillation fluid to completely dried wells, radioactivity is counted by MicroBeta scintillation counter. The reduction of radioactivity represents the potency of compound inhibition.

[5] = target: T3, HIV-1 protease (Human immunodeficiency virus type 1 group M subtype B, UniProt P12497); test: protease assay (Abz-HIV Protease Substrate FRET); assay type: biochemical
T3 construct: A 50 μM stock HIV-1 protease (received from Sook-kyung Lee (UNC)); gift from Sook-kyung Lee (UNC)
Description: as §2

[6] = test system: PBMCs; test: PBMC Acute Infection, cytotoxicity (CC50/CC90); assay type: cell-based
Description: as §1

T1 sequence (P12504 whole entry): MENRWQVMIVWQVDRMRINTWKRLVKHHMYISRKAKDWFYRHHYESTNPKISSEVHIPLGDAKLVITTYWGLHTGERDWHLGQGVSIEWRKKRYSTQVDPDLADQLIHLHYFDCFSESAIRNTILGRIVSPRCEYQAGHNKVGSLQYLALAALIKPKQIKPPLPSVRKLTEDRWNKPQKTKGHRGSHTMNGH

SMILES	pEC50 [1]	Vif multimerization (result in words) [1]	pEC50 [2]	EC90 [2] [nM]	pEC50 [3]	EC90 [3] [nM]	pIC50 [4]	activity against HIV integrase (result in words) [4]	pIC50 [5]	activity against HIV protease (result in words) [5]	CC90 ([6]; row of isolate 98US_MSC5016, subtype C) [nM]	CC90 ([6]; row of isolate IIIB, subtype B) [nM]
CCc1c2c(nc3ccc(O)cc13)-c1cc3c(c(=O)n1C2)CNC(=O)[C@]3(O)CC [SN38-L, (S)-4,11-Diethyl-4,9-dihydroxy-1,2-dihydroquinolino[2′,3′:3,4]pyrrolo[1,2-b][2,7]naphthyridine-3,14(4H,12H)-dione]	6.42	block	8.00	28	8.40	16	< 4.00	inactive	< 4.00	inactive		
CCc1c2c(nc3ccc(N)cc13)-c1cc3c(c(=O)n1C2)CNC(=O)[C@]3(O)CC [Compound O5-SN, (S)-9-Amino-4,11-diethyl-4-hydroxy-1,2-dihydroquinolino[2′,3′:3,4]pyrrolo[1,2-b][2,7]naphthyridine-3,14(4H,12H)-dione]	6.44	block	8.10	25	8.22	20	< 4.00	inactive	< 4.00	inactive	> 100000	> 100000
